Reference: patent US20250195521A1 (Revolution Medicines, Inc., priority 2020, published 2025)
pIC50: −log10 of the molar value.

How the values were obtained:
[1] = tested on: NCI-H358 cells (K-Ras G12C); assay: CellTiter-Glo cell viability, NCI-H358; format: cell-based, human; conditions: Homo sapiens, NCI-H358, 120 h, K-Ras G12C, 5-day treatment; read-out: H358 Cell Viability IC50
Outline: (§1)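 Endpoint: CellTiter-Glo luminescence on day 5, following ~30 min at room temperature. Data as (sample/mean DMSO)×100, four-parameter logistic fit.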

[2] = tested on: Capan-1 cells (K-Ras G12V); assay: CellTiter-Glo cell viability, Capan-1; format: cell-based, human; conditions: Homo sapiens, CAPAN-1, 120 h, K-Ras G12V, 5-day treatment; read-out: Capan-1 Cell Viability IC50
Outline: as §1

[3] = biological target: KRAS G12C (Homo sapiens (Human), UniProt P01116+P62937, G12C); assay: Ras-Raf disruption/FRET/MOA assay (BRAF RBD, Cyclophilin A); format: biochemical; conditions: read-out: KRAS G12C FRET IC50
Outline: (§2)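 Measured: compound-facilitated Cyclophilin A:Ras complex blocking RAF RBD binding. Conditions: 12.5 nM Ras-GMPPNP, 50 nM BRAF RBD, 25 μM CypA, 3 h plus 1.5 h detection. Output: IC50 from TR-FRET ratio.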

[4] = biological target: KRAS G12D (Homo sapiens (Human), UniProt P01116+P62937, G12D); assay: as above; format: biochemical; conditions: read-out: KRAS G12D FRET IC50
Outline: as §2

[5] = biological target: KRAS G12S (Homo sapiens (Human), UniProt P01116+P62937, G12S); assay: as above; format: biochemical; conditions: read-out: KRAS G12S FRET IC50
Outline: as §2

[6] = biological target: KRAS G12V (Homo sapiens (Human), UniProt P01116+P62937, G12V); assay: as above; format: biochemical; conditions: read-out: KRAS G12V FRET IC50
Outline: as §2

[7] = biological target: KRAS G13C (Homo sapiens (Human), UniProt P01116+P62937, G13C); assay: as above; format: biochemical; conditions: read-out: KRAS G13C FRET IC50
Outline: as §2

[8] = biological target: KRAS G13D (Homo sapiens (Human), UniProt P01116+P62937, G13D); assay: as above; format: biochemical; conditions: read-out: KRAS G13D FRET data IC50
Outline: as §2

[9] = biological target: KRAS Q61H (Homo sapiens (Human), UniProt P01116+P62937, Q61H); assay: as above; format: biochemical
Outline: as §2

[10] = biological target: KRAS WT (Homo sapiens (Human), UniProt P01116+P62937); assay: as above; format: biochemical; conditions: read-out: KRAS WT FRET data IC50
Outline: as §2

[11] = biological target: NRAS G12C (Homo sapiens (Human), UniProt P01111+P62937, G12C); assay: as above; format: biochemical; conditions: read-out: NRAS G12C FRET data IC50
Outline: as §2

[12] = biological target: NRAS Q61K (Homo sapiens (Human), UniProt P01111+P62937, Q61K); assay: as above; format: biochemical
Outline: as §2

[13] = biological target: NRAS Q61R (Homo sapiens (Human), UniProt P01111+P62937, Q61R); assay: as above; format: biochemical
Outline: as §2

[14] = biological target: NRAS WT (Homo sapiens (Human), UniProt P01111+P62937); assay: as above; format: biochemical
Outline: as §2

[15] = tested on: NCI-H358 (K-Ras G12C); assay: CellTiter-Glo cell viability assay, NCI-H358; format: cell-based, human; conditions: Homo sapiens, NCI-H358, 120 h, 5-day treatment; read-out: H358 Cell Viability assay data (K-Ras G12C, IC50)
Outline: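 After direct compound addition, plates were incubated to day 5 and equilibrated at room temperature for about 30 minutes before CellTiter-Glo reading. Values derive from luminescence relative to the DMSO mean, fitted with a four-parameter logistic model.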

[16] = biological target: K-Ras G12C(GMP-PNP) binding to BRAF RBD (Homo sapiens (Human), UniProt P01116+P62937, G12C); assay: Disruption of BRAF RBD interaction with K-Ras (FRET / MOA assay), K-Ras G12C; format: biochemical; conditions: read-out: KRAS G12C FRET IC50
Outline: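 First, test compounds in a 10-point 3-fold series (30 μM final top) were incubated for 3 hours at 25° C with nucleotide-loaded Ras, cyclophilin A and a BRAF RBD construct. Next, Eu anti-His and allophycocyanin anti-GST detection reagents were added for 1.5 hours. Finally, IC50s were derived from loss of TR-FRET signal against DMSO.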

Chain of NRAS G12C (P01111 whole entry G12C): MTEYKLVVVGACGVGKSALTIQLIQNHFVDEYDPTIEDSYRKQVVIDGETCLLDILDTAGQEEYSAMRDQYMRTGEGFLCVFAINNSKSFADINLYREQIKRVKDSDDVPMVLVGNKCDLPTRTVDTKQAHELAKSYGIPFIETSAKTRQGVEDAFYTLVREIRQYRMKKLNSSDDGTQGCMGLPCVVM
Chain of NRAS G12C (P62937 whole entry): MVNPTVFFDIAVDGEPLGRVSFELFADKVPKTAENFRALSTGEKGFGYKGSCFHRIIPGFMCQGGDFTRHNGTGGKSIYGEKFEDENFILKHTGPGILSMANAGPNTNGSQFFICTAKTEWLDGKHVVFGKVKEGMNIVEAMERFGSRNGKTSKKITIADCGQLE
Chain of KRAS Q61H (P01116 other isoform, or with tags, fused parts or gaps Q61H): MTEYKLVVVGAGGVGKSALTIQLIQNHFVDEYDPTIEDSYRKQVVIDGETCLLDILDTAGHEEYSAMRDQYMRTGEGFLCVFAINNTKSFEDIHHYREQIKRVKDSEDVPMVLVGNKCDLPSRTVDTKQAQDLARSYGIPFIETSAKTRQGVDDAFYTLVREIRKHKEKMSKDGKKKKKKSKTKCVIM
Chain of KRAS Q61H (P62937 whole entry): as the sequence (P62937 whole entry) above
Chain of NRAS WT (P01111 whole entry): as the sequence (P01111 whole entry G12C) above, with C12G counted along it
Chain of NRAS WT (P62937 whole entry): as the sequence (P62937 whole entry) above
Chain of NRAS Q61R (P01111 whole entry Q61R): as the sequence (P01111 whole entry G12C) above, with C12G, Q61R counted along it
Chain of NRAS Q61R (P62937 whole entry): as the sequence (P62937 whole entry) above
Chain of KRAS G12D (P01116 other isoform, or with tags, fused parts or gaps G12D): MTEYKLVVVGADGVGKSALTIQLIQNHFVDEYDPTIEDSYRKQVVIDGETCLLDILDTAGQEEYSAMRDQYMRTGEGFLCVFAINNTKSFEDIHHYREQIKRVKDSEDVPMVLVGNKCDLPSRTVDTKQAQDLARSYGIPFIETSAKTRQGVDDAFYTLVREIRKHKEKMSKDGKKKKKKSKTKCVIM
Chain of KRAS G12D (P62937 whole entry): as the sequence (P62937 whole entry) above
Chain of KRAS G12S (P01116 other isoform, or with tags, fused parts or gaps G12S): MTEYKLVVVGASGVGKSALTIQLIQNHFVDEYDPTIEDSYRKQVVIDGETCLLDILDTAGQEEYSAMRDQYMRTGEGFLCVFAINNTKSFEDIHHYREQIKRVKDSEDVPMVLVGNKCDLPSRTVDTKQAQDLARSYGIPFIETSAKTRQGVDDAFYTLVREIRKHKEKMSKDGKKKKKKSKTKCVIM
Chain of KRAS G12S (P62937 whole entry): as the sequence (P62937 whole entry) above
Chain of NRAS Q61K (P01111 whole entry Q61K): as the sequence (P01111 whole entry G12C) above, with C12G, Q61K counted along it
Chain of NRAS Q61K (P62937 whole entry): as the sequence (P62937 whole entry) above
Chain of KRAS WT (P01116 other isoform, or with tags, fused parts or gaps): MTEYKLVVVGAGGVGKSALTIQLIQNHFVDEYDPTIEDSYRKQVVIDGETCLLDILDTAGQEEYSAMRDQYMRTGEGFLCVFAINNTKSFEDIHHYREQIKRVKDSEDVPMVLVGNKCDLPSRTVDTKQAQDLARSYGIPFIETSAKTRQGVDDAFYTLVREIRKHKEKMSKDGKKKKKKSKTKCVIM
Chain of KRAS WT (P62937 whole entry): as the sequence (P62937 whole entry) above
Chain of KRAS G13C (P01116 other isoform, or with tags, fused parts or gaps G13C): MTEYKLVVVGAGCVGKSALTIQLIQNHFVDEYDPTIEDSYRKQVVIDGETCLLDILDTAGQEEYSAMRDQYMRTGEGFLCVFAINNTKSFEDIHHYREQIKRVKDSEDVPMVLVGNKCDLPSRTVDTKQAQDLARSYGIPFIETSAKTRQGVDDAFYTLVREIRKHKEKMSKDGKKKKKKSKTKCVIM
Chain of KRAS G13C (P62937 whole entry): as the sequence (P62937 whole entry) above
Chain of K-Ras G12C(GMP-PNP) binding to BRAF RBD (P01116 other isoform, or with tags, fused parts or gaps G12C): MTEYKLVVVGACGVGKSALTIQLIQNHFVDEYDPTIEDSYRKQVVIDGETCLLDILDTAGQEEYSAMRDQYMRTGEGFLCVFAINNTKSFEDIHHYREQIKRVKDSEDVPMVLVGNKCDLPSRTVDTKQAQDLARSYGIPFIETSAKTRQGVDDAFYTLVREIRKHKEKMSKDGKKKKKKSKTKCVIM
Chain of K-Ras G12C(GMP-PNP) binding to BRAF RBD (P62937 whole entry): as the sequence (P62937 whole entry) above
Chain of KRAS G13D (P01116 other isoform, or with tags, fused parts or gaps G13D): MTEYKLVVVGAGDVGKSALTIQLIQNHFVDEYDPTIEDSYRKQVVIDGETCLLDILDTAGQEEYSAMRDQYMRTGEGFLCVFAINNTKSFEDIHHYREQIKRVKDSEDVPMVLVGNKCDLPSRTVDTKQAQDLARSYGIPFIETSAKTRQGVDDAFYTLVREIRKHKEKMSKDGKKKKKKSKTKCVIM
Chain of KRAS G13D (P62937 whole entry): as the sequence (P62937 whole entry) above
Chain of KRAS G12V (P01116 other isoform, or with tags, fused parts or gaps G12V): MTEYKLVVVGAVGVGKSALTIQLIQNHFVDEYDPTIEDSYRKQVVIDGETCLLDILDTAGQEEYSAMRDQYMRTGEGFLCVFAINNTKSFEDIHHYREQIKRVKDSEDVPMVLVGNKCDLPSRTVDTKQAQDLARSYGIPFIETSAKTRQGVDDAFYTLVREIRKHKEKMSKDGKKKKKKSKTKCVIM
Chain of KRAS G12V (P62937 whole entry): as the sequence (P62937 whole entry) above
Chain of KRAS G12C (P01116-2 other isoform, or with tags, fused parts or gaps G12C): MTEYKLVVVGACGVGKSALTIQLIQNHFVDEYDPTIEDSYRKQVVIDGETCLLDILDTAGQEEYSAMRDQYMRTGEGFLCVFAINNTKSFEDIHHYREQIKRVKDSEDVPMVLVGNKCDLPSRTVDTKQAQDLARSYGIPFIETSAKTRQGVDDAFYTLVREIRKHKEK
Chain of KRAS G12C (P62937 whole entry): as the sequence (P62937 whole entry) above

CCn1c(-c2cccnc2[C@H](C)OC)c2c3cc(ccc31)-c1csc(n1)C[C@H](NC(=O)[C@@H]1CCO1)C(=O)N1CCC[C@H](N1)C(=O)OCC(C)(C)C2 [Compound A359]
pIC50 [1]: 5.00 to 6.00 | pIC50 [2]: 5.00 to 6.00 | pIC50 [3]: 6.00 to 7.00 | pIC50 [4]: 5.00 to 6.00 | pIC50 [5]: 5.00 to 6.00 | pIC50 [6]: 6.00 to 7.00 | pIC50 [7]: 6.00 to 7.00 | pIC50 [8]: 5.00 to 6.00 | pIC50 [9]: 6.00 to 7.00 | pIC50 [10]: 5.00 to 6.00 | pIC50 [11]: 6.00 to 7.00 | pIC50 [12]: 6.00 to 7.00 | pIC50 [13]: 5.00 to 6.00 | pIC50 [14]: 6.00 to 7.00 | pIC50 [15]: 7.00 to 8.00 | pIC50 [16]: 7.00 to 8.00

CCn1c(-c2cccnc2[C@H](C)OC)c2c3cc(ccc31)-c1csc(n1)C[C@H](NC(=O)[C@H](C(C)C)N(C)C(=O)N1CC[C@@]13CCCN(C)C3)C(=O)N1CCC[C@H](N1)C(=O)OCC(C)(C)C2 [Compound A468]
pIC50 [2]: 6.00 to 7.00 | pIC50 [3]: 6.00 to 7.00 | pIC50 [4]: 6.00 to 7.00 | pIC50 [5]: 6.00 to 7.00 | pIC50 [6]: 5.00 to 6.00 | pIC50 [7]: 6.00 to 7.00 | pIC50 [8]: 6.00 to 7.00 | pIC50 [9]: 7.00 to 8.00 | pIC50 [10]: 6.00 to 7.00 | pIC50 [11]: 6.00 to 7.00 | pIC50 [12]: 6.00 to 7.00 | pIC50 [13]: 6.00 to 7.00 | pIC50 [14]: 6.00 to 7.00 | pIC50 [15]: 7.00 to 8.00 | pIC50 [16]: 6.00 to 7.00

CCn1c(-c2cccnc2[C@H](C)OC)c2c3cc(ccc31)-c1csc(n1)C[C@H](NC(=O)[C@H](C(C)C)N(C)C(=O)N(C)C[C@H]1CCN1C)C(=O)N1CCC[C@H](N1)C(=O)OCC(C)(C)C2 [Compound A469]
pIC50 [2]: 6.00 to 7.00 | pIC50 [3]: 6.00 to 7.00 | pIC50 [4]: 6.00 to 7.00 | pIC50 [5]: 6.00 to 7.00 | pIC50 [6]: 5.00 to 6.00 | pIC50 [7]: 6.00 to 7.00 | pIC50 [8]: 6.00 to 7.00 | pIC50 [9]: 6.00 to 7.00 | pIC50 [10]: 6.00 to 7.00 | pIC50 [11]: 6.00 to 7.00 | pIC50 [12]: 6.00 to 7.00 | pIC50 [13]: 5.00 to 6.00 | pIC50 [14]: 6.00 to 7.00 | pIC50 [15]: 6.00 to 7.00 | pIC50 [16]: 6.00 to 7.00

CCn1c(-c2cccnc2[C@H](C)OC)c2c3cc(ccc31)-c1csc(n1)C[C@H](NC(=O)[C@H](C(C)C)N(C)C(=O)N(C)C[C@H]1CCCN1C)C(=O)N1CCC[C@H](N1)C(=O)OCC(C)(C)C2 [Compound A473]
pIC50 [2]: 6.00 to 7.00 | pIC50 [3]: 6.00 to 7.00 | pIC50 [4]: 5.00 to 6.00 | pIC50 [5]: 6.00 to 7.00 | pIC50 [6]: 5.00 to 6.00 | pIC50 [7]: 6.00 to 7.00 | pIC50 [8]: 6.00 to 7.00 | pIC50 [9]: 6.00 to 7.00 | pIC50 [10]: 6.00 to 7.00 | pIC50 [11]: 6.00 to 7.00 | pIC50 [12]: 5.00 to 6.00 | pIC50 [13]: 5.00 to 6.00 | pIC50 [14]: 6.00 to 7.00 | pIC50 [15]: 7.00 to 8.00 | pIC50 [16]: 6.00 to 7.00

CCn1c(-c2cccnc2[C@H](C)OC)c2c3cc(ccc31)-c1csc(n1)C[C@H](NC(=O)[C@H](C(C)C)N(C)C(=O)N1CC[C@H]1CN(C)C)C(=O)N1CCC[C@H](N1)C(=O)OCC(C)(C)C2 [Compound A508]
pIC50 [1]: 6.00 to 7.00 | pIC50 [2]: 6.00 to 7.00 | pIC50 [3]: 6.00 to 7.00 | pIC50 [4]: 5.00 to 6.00 | pIC50 [5]: 6.00 to 7.00 | pIC50 [6]: 5.00 to 6.00 | pIC50 [7]: 6.00 to 7.00 | pIC50 [8]: 5.00 to 6.00 | pIC50 [9]: 6.00 to 7.00 | pIC50 [10]: 6.00 to 7.00 | pIC50 [11]: 6.00 to 7.00 | pIC50 [12]: 5.00 to 6.00 | pIC50 [13]: 5.00 to 6.00 | pIC50 [14]: 6.00 to 7.00 | pIC50 [15]: 6.00 to 7.00 | pIC50 [16]: 6.00 to 7.00

CCn1c(-c2cccnc2[C@H](C)OC)c2c3cc(ccc31)-c1csc(n1)C[C@H](NC(=O)[C@H](C(C)C)N(C)C(=O)N1CCN(C)[C@@H](c3ccccc3)C1)C(=O)N1CCC[C@H](N1)C(=O)OCC(C)(C)C2 [Compound A524]
pIC50 [1]: 6.00 to 7.00 | pIC50 [2]: 6.00 to 7.00 | pIC50 [3]: 6.00 to 7.00 | pIC50 [4]: 5.00 to 6.00 | pIC50 [5]: 5.00 to 6.00 | pIC50 [6]: 5.00 to 6.00 | pIC50 [7]: 6.00 to 7.00 | pIC50 [8]: 5.00 to 6.00 | pIC50 [9]: 6.00 to 7.00 | pIC50 [10]: 6.00 to 7.00 | pIC50 [11]: 6.00 to 7.00 | pIC50 [12]: 6.00 to 7.00 | pIC50 [13]: 5.00 to 6.00 | pIC50 [14]: 6.00 to 7.00 | pIC50 [15]: 7.00 to 8.00 | pIC50 [16]: 6.00 to 7.00

CCn1c(-c2cccnc2[C@H](C)OC)c2c3cc(ccc31)-c1csc(n1)C[C@H](NC(=O)[C@H](C(C)C)N(C)C(=O)N(C)[C@H]1CCN(C)C1)C(=O)N1CCC[C@H](N1)C(=O)OCC(C)(C)C2 [Compound A563]
pIC50 [1]: 7.00 to 8.00 | pIC50 [2]: 7.00 to 8.00 | pIC50 [3]: 6.00 to 7.00 | pIC50 [4]: 6.00 to 7.00 | pIC50 [5]: 6.00 to 7.00 | pIC50 [6]: 5.00 to 6.00 | pIC50 [7]: 6.00 to 7.00 | pIC50 [8]: 6.00 to 7.00 | pIC50 [9]: 7.00 to 8.00 | pIC50 [10]: 6.00 to 7.00 | pIC50 [11]: 6.00 to 7.00 | pIC50 [12]: 6.00 to 7.00 | pIC50 [13]: 6.00 to 7.00 | pIC50 [14]: 6.00 to 7.00 | pIC50 [15]: 6.00 to 7.00 | pIC50 [16]: 6.00 to 7.00

CCn1c(-c2cccnc2[C@H](C)OC)c2c3cc(ccc31)-c1csc(n1)C[C@H](NC(=O)[C@H](C(C)C)N(C)C(=O)N1C[C@H]3CCN(C)[C@H]3C1)C(=O)N1CCC[C@H](N1)C(=O)OCC(C)(C)C2 [Compound A568]
pIC50 [1]: 7.00 to 8.00 | pIC50 [2]: 6.00 to 7.00 | pIC50 [3]: 6.00 to 7.00 | pIC50 [4]: 6.00 to 7.00 | pIC50 [5]: 6.00 to 7.00 | pIC50 [6]: 6.00 to 7.00 | pIC50 [7]: 6.00 to 7.00 | pIC50 [8]: 6.00 to 7.00 | pIC50 [9]: 6.00 to 7.00 | pIC50 [10]: 6.00 to 7.00 | pIC50 [11]: 6.00 to 7.00 | pIC50 [12]: 6.00 to 7.00 | pIC50 [13]: 6.00 to 7.00 | pIC50 [14]: 6.00 to 7.00 | pIC50 [15]: 7.00 to 8.00 | pIC50 [16]: 7.00 to 8.00
